Measurements: ChEMBL document CHEMBL5214900, “Design, Synthesis, and Biological Evaluation of Membrane-Active Bakuchiol Derivatives as Effective Broad-Spectrum Antibacterial Agents” (J Med Chem, 2021)
In brackets after ≈: the same amount, converted by molar mass.

What was measured:
Assay type in all cases: functional
[1] = system: Staphylococcus aureus; assay: Antibacterial activity against Staphylococcus aureus ATCC 29213 assessed as inhibition of bacterial growth incubated for 24 hrs by CLSI based broth dilution method
[2] = system: Staphylococcus aureus; assay: Antibacterial activity against methicillin-resistant Staphylococcus aureus N315 assessed as inhibition of bacterial growth incubated for 24 hrs by CLSI based broth dilution method
[3] = system: Staphylococcus aureus; assay: Antibacterial activity against methicillin-resistant Staphylococcus aureus NCTC10442 assessed as inhibition of bacterial growth incubated for 24 hrs by CLSI based broth dilution method
[4] = system: Staphylococcus aureus; assay: Bactericidal activity against Staphylococcus aureus ATCC 29213 assessed as log reduction in viable bacteria at 8 times MIC measured after 8 hrs by time-killing assay
[5] = system: Staphylococcus aureus; assay: Antibacterial activity against Staphylococcus aureus ATCC 29213 in C57BL/6 mouse model of bacterial keratitis assessed as log reduction in number of viable bacterial colonies in infected cornea at 50 mg/ml, TOP administered 4 times a day for 3 consecutive days; details: time 3 day
[6] = system: Pseudomonas aeruginosa; assay: Antibacterial activity against Pseudomonas aeruginosa ATCC 9027 in C57BL/6 mouse model of bacterial keratitis assessed as log reduction in number of viable bacterial colonies in infected cornea at 3 mg/ml, TOP administered 4 times a day for 3 consecutive days; details: time 3 day
[7] = system: Escherichia coli; assay: Bactericidal activity against Escherichia coli ATCC 25922 assessed as log reduction in viable bacteria at 8 times MIC measured after 2 hrs by time-killing assay
[8] = system: Escherichia coli; assay: Induction of drug resistance in Escherichia coli ATCC 25922 assessed as fold change in MIC measured after 19 passages by CLSI based broth dilution method

For `CN[C@H](CC(C)C)C(=O)N[C@H]1C(=O)N[C@@H](CC(N)=O)C(=O)N[C@H]2C(=O)N[C@H]3C(=O)N[C@H](C(=O)N[C@H](C(=O)O)c4cc(O)cc(O)c4-c4cc3ccc4O)[C@H](O)c3ccc(c(Cl)c3)Oc3cc2cc(c3O[C@@H]2O[C@H](CO)[C@@H](O)[C@H](O)[C@H]2O[C@H]2C[C@](C)(N)[C@H](O)[C@H](C)O2)Oc2ccc(cc2Cl)[C@H]1O` [VANCOMYCIN], the MIC [1] was 0.78 mg/L (≈ 0.538 µM), the MIC [2] was 1.56 mg/L (≈ 1.08 µM) and the MIC [3] was 1.56 mg/L (≈ 1.08 µM). For the same compound, the “log(activity)” value [4] was 1.22 and the “log(activity)” value [5] was 6.05.
In the case of `COc1c(N2CCNC(C)C2)c(F)cc2c(=O)c(C(=O)O)cn(C3CC3)c12` (stereo not drawn) [GATIFLOXACIN], the “log(activity)” value [6] is reported as 3.15.
In the case of `CC1(C)S[C@@H]2[C@H](NC(=O)[C@H](N)c3ccc(O)cc3)C(=O)N2[C@H]1C(=O)O` [AMOXICILLIN], the “log(activity)” value [7] is reported as 1.22 and the fold change (FC) [8] is reported as 16.
